According to patent publication US4963526A, “Oral insulin and a method of making the same” (priority 1988, dated 1990):

System: white laboratory rats
Assay: Blood glucose level in rats before and three hours after administration of the oral insulin preparation
Type: in vivo
Conditions: white laboratory rat, 5 units of bovine insulin, three hours after administration
Description: Two white laboratory rats, weighing 177 and 197 grams, respectively, were used in this experiment. One rat was administered a preparation of oral insulin according to the present invention containing 5 units of insulin; a formulation of the oral insulin according to the present invention containing 10 units of bovine insulin was administered to the second rat. Blood samples were drawn from each animal before and three hours after administration of the oral insulin preparation. The results given below are expressed as the percentage of the pre-experiment blood glucose level.
One white laboratory rat weighing 181 grams received a non-encapsulated preparation containing 5 units of free bovine insulin. This animal served as the control. After three hours, blood glucose level was 98.7% of the pre-experiment blood glucose level.

## free bovine insulin: non-encapsulated preparation containing 5 units of free bovine insulin; served as the control
  blood glucose level as percentage of the pre-experiment (initial) blood glucose level: 98.7 % of initial blood glucose lev
